This is an account of results in PubChem BioAssay (NCI).

Among the test systems are NCI-H23 lung; NCI-H226 lung; LOX IMVI melanoma; SN12C renal; IGROV1 ovarian; ACHN renal; SNB-75 CNS; RPMI-8226 leukemia; OVCAR-8 ovarian; MALME-3M melanoma.
What all share (assay): DTP human tumour cell line panel, 48 h

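The compound was tested at five concentrations on cells cultured in 96-well plates, with a 48-hour exposure period. GI50 marks 50% less growth. At the TGI there is no net growth.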 Where only a bound is given, the exact number is not on record here.

Regarding `COC(=O)C1CC2(c3ccc(C)cc3)C(c3ccc(C)cc3)=C(c3ccc(C)cc3)C1(c1ccc(C)cc1)S2=O` (stereo not given), the GI50 in the assay on NCI-H23 lung is above 100 µM; in the assay on NCI-H226 lung, above 100 µM; in the assay with LOX IMVI melanoma, above 100 µM; in the assay with SN12C renal, above 100 µM; with IGROV1 ovarian, 98.4 µM; in the assay on ACHN renal it was above 100 µM. Further, the GI50 in the assay on SNB-75 CNS is 10.6 µM; with RPMI-8226 leukemia, above 100 µM; in the assay on OVCAR-8 ovarian it was 37.9 µM; in the assay with MALME-3M melanoma, above 100 µM. Further, the TGI in the assay on NCI-H23 lung, in the assay with NCI-H226 lung, in the assay on LOX IMVI melanoma, in the assay with SN12C renal, in the assay on IGROV1 ovarian and in the assay on ACHN renal was above 100 µM throughout. The TGI in the assay with SNB-75 CNS was 29.6 µM; in the assay with RPMI-8226 leukemia it was above 100 µM; in the assay on OVCAR-8 ovarian it was above 100 µM; in the assay on MALME-3M melanoma, above 100 µM.

As for `CCOC(=O)Nc1nc2c(F)c(F)c(F)cc2s1`, the GI50 in the assay with NCI-H23 lung was 89 µM; in the assay with NCI-H226 lung it was 46 µM; with LOX IMVI melanoma it was above 100 µM; in the assay with SN12C renal it was above 100 µM; in the assay on IGROV1 ovarian, above 100 µM; in the assay with ACHN renal it was above 100 µM. Moreover, the GI50 in the assay on SNB-75 CNS was 23.4 µM; with RPMI-8226 leukemia, above 100 µM; with OVCAR-8 ovarian, 48.1 µM; with MALME-3M melanoma, above 100 µM. Moreover, the TGI in the assay with NCI-H23 lung, in the assay on NCI-H226 lung, with LOX IMVI melanoma, with SN12C renal, with IGROV1 ovarian and with ACHN renal was above 100 µM each time. Moreover, the TGI in the assay on SNB-75 CNS is 94.4 µM; in the assay with RPMI-8226 leukemia, above 100 µM; with OVCAR-8 ovarian it was above 100 µM; in the assay with MALME-3M melanoma it was above 100 µM.

As for `COc1cc(C)c(C(=O)/C=C/c2cc(OC)c(O)c(OC)c2)cc1O`, the TGI is 36.4 µM in the assay on NCI-H23 lung; above 100 µM in the assay with LOX IMVI melanoma; 85 µM in the assay with IGROV1 ovarian; above 100 µM with ACHN renal; above 100 µM in the assay on SNB-75 CNS; above 100 µM with RPMI-8226 leukemia. Further, the concentration for total growth inhibition (TGI) in the assay with OVCAR-8 ovarian was above 100 µM; in the assay with MALME-3M melanoma, 36.9 µM.

Take `COC(=O)c1[nH]nc(-c2ccccc2)c1N1CCCCC1`: the GI50 with NCI-H23 lung is 26.3 µM; with NCI-H226 lung, 13.2 µM; in the assay on LOX IMVI melanoma it was 42 µM; in the assay with SN12C renal it was 15.5 µM; in the assay on IGROV1 ovarian, 60.8 µM; in the assay on ACHN renal, 25.6 µM. The GI50 is 30.6 µM with SNB-75 CNS, 38 µM in the assay with RPMI-8226 leukemia, 44.2 µM in the assay with OVCAR-8 ovarian and 39.3 µM in the assay on MALME-3M melanoma. The TGI was 85.6 µM with NCI-H23 lung; 36.5 µM in the assay on NCI-H226 lung; above 100 µM in the assay with LOX IMVI melanoma; 41.5 µM with SN12C renal; above 100 µM in the assay with IGROV1 ovarian; 62.1 µM in the assay on ACHN renal. Also, the TGI is 84.7 µM in the assay on SNB-75 CNS, above 100 µM in the assay with RPMI-8226 leukemia, above 100 µM in the assay with OVCAR-8 ovarian and above 100 µM in the assay on MALME-3M melanoma.

Regarding `Cn1c2ccccc2c2cc(-c3ccccc3)c3c(c21)C(=O)C=CC3=O`, the TGI is 42.6 µM in the assay with NCI-H23 lung; 76.7 µM with NCI-H226 lung; 34.7 µM in the assay on LOX IMVI melanoma; 47.2 µM in the assay on SN12C renal; 64.9 µM in the assay with IGROV1 ovarian; 41.3 µM with ACHN renal. Also, the TGI in the assay on SNB-75 CNS turned out to be 67.1 µM; in the assay with RPMI-8226 leukemia it was 8.61 µM; in the assay on OVCAR-8 ovarian, 78.3 µM; with MALME-3M melanoma it was 40.2 µM.

Turning to `COc1cc(/C=C/C(=O)c2c(C)n([O-])c3cc(C)c(C)cc3[n+]2=O)cc(OC)c1OC`, the GI50 in the assay on NCI-H23 lung is 16.2 µM; with NCI-H226 lung it was 21.6 µM; with LOX IMVI melanoma, 11.9 µM; with SN12C renal, 17.5 µM; in the assay on IGROV1 ovarian, 12.8 µM; with ACHN renal, 13.9 µM. In addition, the GI50 in the assay on SNB-75 CNS was 19.8 µM; in the assay on OVCAR-8 ovarian, 23.6 µM; in the assay on MALME-3M melanoma, 19.6 µM. Moreover, the TGI in the assay with NCI-H23 lung amounted to 41.9 µM; with NCI-H226 lung, 55.5 µM; in the assay on LOX IMVI melanoma, 29.2 µM; in the assay with SN12C renal, 42.7 µM; in the assay with IGROV1 ovarian it was 29.4 µM; in the assay with ACHN renal, 27.9 µM. In addition, the values for the TGI with SNB-75 CNS, with OVCAR-8 ovarian and in the assay with MALME-3M melanoma were 41.3 µM, 71.8 µM and 41.1 µM, respectively.

As to `CCOC(=O)CNC(SC)=C(C#N)C#N`, the total growth inhibition concentration (TGI) in the assay with NCI-H23 lung, in the assay on NCI-H226 lung, in the assay with LOX IMVI melanoma, in the assay with SN12C renal, with IGROV1 ovarian and in the assay with SNB-75 CNS was above 100 µM throughout. Moreover, the TGI in the assay with RPMI-8226 leukemia, with OVCAR-8 ovarian and in the assay with MALME-3M melanoma was above 100 µM each time.

Turning to `Cc1cc(N(CCCNc2ccnc3cc(Cl)ccc23)Cc2cccs2)nc(Cl)n1`, the GI50 is 1.3 µM with NCI-H23 lung; 10.2 µM with NCI-H226 lung; 2.79 µM in the assay on LOX IMVI melanoma; 5.91 µM in the assay with SN12C renal; 2.9 µM with IGROV1 ovarian; 5.12 µM in the assay on ACHN renal. Besides, the GI50 in the assay on SNB-75 CNS is 2.82 µM; in the assay on RPMI-8226 leukemia, 1.43 µM; with OVCAR-8 ovarian, 4.83 µM; with MALME-3M melanoma, 3.06 µM. The concentration for total growth inhibition (TGI) in the assay with NCI-H23 lung was 16.7 µM; with NCI-H226 lung, 31.1 µM; with LOX IMVI melanoma, 11.7 µM; in the assay on SN12C renal it was 23.9 µM; with IGROV1 ovarian it was 18.9 µM; in the assay on ACHN renal, 19.7 µM. Besides, the TGI in the assay on SNB-75 CNS worked out at 18 µM; with RPMI-8226 leukemia it was 9.71 µM; in the assay on OVCAR-8 ovarian, 34.9 µM; in the assay with MALME-3M melanoma, 13.5 µM.

For `COc1cc(C2c3cc4c(cc3C3OC(=O)C2C3CO)OCO4)cc(OC)c1OC` (stereo not given), the concentration for 50% growth inhibition (GI50) with NCI-H23 lung was 0.0317 µM; in the assay on NCI-H226 lung, 0.0616 µM; in the assay with LOX IMVI melanoma, below 0.01 µM; in the assay on SN12C renal it was 0.0457 µM; in the assay on IGROV1 ovarian, 0.035 µM; in the assay with ACHN renal it was 0.0344 µM. Further, the concentration for 50% growth inhibition (GI50) in the assay with SNB-75 CNS was 0.0415 µM; with RPMI-8226 leukemia it was 0.0282 µM; with OVCAR-8 ovarian, 0.0274 µM; in the assay with MALME-3M melanoma it was 0.0262 µM. In addition, the TGI in the assay with NCI-H23 lung, in the assay on NCI-H226 lung, with LOX IMVI melanoma, in the assay with SN12C renal, in the assay on IGROV1 ovarian and in the assay on ACHN renal was above 100 µM each time. Moreover, the TGI with SNB-75 CNS, in the assay on RPMI-8226 leukemia, in the assay on OVCAR-8 ovarian and in the assay with MALME-3M melanoma was above 100 µM in each case.
